Laboratory results taken from US20020037872A1, “N6 heterocyclic 5' modified adenosine derivatives” (CV Therapeutics, Inc., priority 1999, published 2002).

Columns and labels:
A1 adenosine receptor = biological target: T1, A1 adenosine receptor (Mesocricetus auratus, UniProt A0A1U8BVR4); experiment: [35S]GTPγS binding assay, A1-agonist stimulated; type: biochemical, hamster; settings: […], agonist stimulated [35S]GTPγS binding, CPA = 100%
T1 construct: endogenous in cells; host or cells: DDT1 (DDT1 MF-2) hamster vas deferens smooth muscle cells
T1 sequence (A0A1U8BVR4 1-326): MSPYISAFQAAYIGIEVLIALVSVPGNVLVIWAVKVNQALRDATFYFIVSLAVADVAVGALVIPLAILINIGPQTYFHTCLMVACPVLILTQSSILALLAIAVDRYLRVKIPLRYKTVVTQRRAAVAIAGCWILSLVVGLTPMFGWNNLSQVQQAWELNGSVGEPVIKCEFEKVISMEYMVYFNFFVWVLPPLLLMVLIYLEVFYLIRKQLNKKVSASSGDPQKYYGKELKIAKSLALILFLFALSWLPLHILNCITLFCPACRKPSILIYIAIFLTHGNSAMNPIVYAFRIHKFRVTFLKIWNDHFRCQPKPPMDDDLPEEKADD
How it was run: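 Membranes in 50 mM Tris-HCl pH 7.4, 5 mM MgCl2, 100 mM NaCl, 1 mM DTT used for A1-agonist-stimulated [35S]GTPγS binding, read by filtration. Nonspecific binding defined with 10 μM GTPγS. Saturation runs used 0.5 nM [35S]GTPγS with 0.5–1000 nM GTPγS.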

A1 receptor = biological target: T2, A1 receptor (Mesocricetus auratus, UniProt A0A1U8BVR4); experiment: Competitive binding assay, DDT1 cell membranes, [3H]CCPA; parameters: species or system hamster; settings: [3H]CCPA 2 nM, DDT1 cell membranes; read-out: Ki-DDT1 cell membrane
T2 construct: endogenous in cells; host or cells: DDT1 (DDT1 MF-2) hamster vas deferens smooth muscle cells
T2 sequence (A0A1U8BVR4 1-326): T1 sequence (A0A1U8BVR4 1-326)

Structure (SMILES): CNC(=O)OC[C@H]1O[C@@H](n2cnc3c(N[C@@H]4CCOC4)ncnc32)[C@H](O)[C@@H]1O [Compound 6, (5-16[((3R)oxolan-3-yl)aminolpurin-9-yl)(3S,2R,4R,5R)-3,4dihydroxyoxolan-2yl)methoxyl-N-methylearboxamide]
- Emax (A1 adenosine receptor): 48%
- Ki (A1 receptor): 178 nM
